These results are taken from patent US10800754B2, “Heterocyclic amide compound” (TAKEDA PHARMACEUTICAL COMPANY LIMITED, priority 2016, dated 2020).

Experiment [1] concerns human ovarian cancer cell A2780. Nature of the experiment: proliferation inhibitory activity against A2780 cells (CellTiter-Glo). In kind it is cell-based. The settings on record: A2780, 72 h, 1 μM test compound, 3 days of culture, read-out: proliferation inhibitory rate (%) of A2780 cells. The method, then:
The proliferation inhibitory activity of the compound of the present invention against human ovarian cancer cell A2780 was evaluated by the following method.
Human ovarian cancer cells A2780 were seeded in a 384 well culture plate at 1000 cells in 30 μL of medium per well by using RPMI-1640 medium (Wako Pure Chemical Industries, Ltd.) containing 10% fetal bovine serum and penicillin/streptomycin. The next day, 10 μL of RPMI-1640 medium containing the test compound was added to the cells. After 3 days of culture, 20 μL of CellTiter-Glo Luminescent Cell Viability Assay solution (Promega, Fitchburg, Wis., US) was added. The luminescence signal was measured using EnVision (PerkinElmer, Waltham, Mass., US) and the inhibitory rate (%) of the test compound was calculated with a well free of seeding of cell as 100% inhibition.

Experiment [2] deals with T1, human PRS protein (Homo sapiens, UniProt P07814).
T1 construct: to construct His-Avi-hEPRS (998-1512) expression plasmid; His tag (N); Avi tag (N); TEV cleavage site (ENLYFQ/GS, encoded by forward primer hEPRS-TEV-NheF) (N); made in house; host or cells: E. coli BL21(DE3)
T1 sequence (P07814 998-1512): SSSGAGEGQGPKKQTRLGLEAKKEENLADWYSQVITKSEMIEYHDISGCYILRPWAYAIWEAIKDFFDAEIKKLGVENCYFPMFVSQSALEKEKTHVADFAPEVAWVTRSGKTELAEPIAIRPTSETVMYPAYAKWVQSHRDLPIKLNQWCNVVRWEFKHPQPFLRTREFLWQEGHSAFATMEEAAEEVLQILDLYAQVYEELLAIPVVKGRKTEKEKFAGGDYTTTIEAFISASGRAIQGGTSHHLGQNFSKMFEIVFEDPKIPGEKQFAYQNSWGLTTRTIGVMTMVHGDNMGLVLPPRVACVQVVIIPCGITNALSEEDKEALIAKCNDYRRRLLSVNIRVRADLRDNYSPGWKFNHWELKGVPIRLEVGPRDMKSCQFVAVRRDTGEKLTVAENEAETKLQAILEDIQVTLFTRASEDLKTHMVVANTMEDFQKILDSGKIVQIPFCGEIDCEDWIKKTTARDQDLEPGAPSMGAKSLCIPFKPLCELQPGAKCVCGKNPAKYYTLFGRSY
Nature of the experiment: PRS inhibitory activity (ATP/[32P]pyrophosphate exchange enzyme reaction). Particulars: 300 nM test compound; recombinant human PRS (EPRS 998-1512); read-out: inhibitory rate (%) of PRS. In kind it is biochemical. The procedure:
The PRS inhibitory activity of the compounds of the present invention was evaluated by the following method.
An expression plasmid of Catalytic Domain of human EPRS was obtained by PCR using human skeletal muscle cDNA Library (Takara Bio Inc.) as a template and 2 kinds of Primers 5′-[…]-3′ (hEPRS-TEV-NheF) (SEQ ID NO: 1) and 5′-[…]-3′ (hEPRS-St-Not-R) (SEQ ID NO: 2). PCR was performed using PrimeStar GXL DNA Polymerase (Takara Bio Inc.) and included (1) 98° C., 1 min, (2) cycles of 98° C., 10 sec, 65° C., 10 sec, 72° C., 1 min, and (3) reaction at 72° C., 1 min. This was cleaved with Nhe I and Not I (Takara Bio Inc.) and inserted using Ligation High (TOYOBO CO., LTD.) into the Nhe I/Not I site of pET21a (Novagen) with His-Avitag inserted thereinto. This was introduced into ECOS JM109 (NIPPON GENE CO., LTD.) to construct His-Avi-hEPRS (998-1512) expression plasmid.
Recombinant human PRS protein was prepared by transforming the His-Avi-hEPRS (998-1512) expression plasmid prepared above into ECOS Competent E. coli BL21(DE3) (NIPPON GENE CO., LTD.). Escherichia coli obtained by transformation was inoculated into 300 mL of LB medium (1% peptone, 0.5% yeast extract, 0.5% sodium chloride, 0.01% ampicillin) and cultured at 30° C. for 16 hr. The obtained culture medium was transferred into a jar culture tank charged with 6 L of the main fermentation medium (0.3% potassium dihydrogen phosphate, 0.6% disodium hydrogen phosphate, 0.1% ammonium chloride, 0.05% sodium chloride, 0.024% magnesium sulfate, 0.02% NEWPOL LB-625, 1.5% sorbitol, 1.5% casamino acid, 0.5% yeast extract, 0.01% ampicillin) and culturing was started at 37° C., quantity of airflow 5 L/min, stirring rotating speed 400 rpm. At the time point when the turbidity of the culture medium reached about 550 Klett units, the culture temperature was lowered to 16° C., isopropyl-β-D-thiogalactopyranoside (IPTG) was added to the final concentration 0.1 mM, and culturing was performed for another 16 hr to induce expression of human PRS. After completion of culturing, the culture medium was centrifuged at 5,000 rpm for 10 min. The obtained human PRS expressing Escherichia coli was suspended in a buffer containing 50 mM Tris-HCl (pH 8.0), 150 mM NaCl, 1 mM DTT, 5 U/ml Benzonase, 20 mM Imidazole and sonicated using Sonifier (BRANSON). The homogenate was centrifuged (33,000×G, 60 min, Beckman Coulter), the obtained supernatant was subjected to adsorption by passage through Ni-NTA Superflow (QIAGEN) column equilibrated in advance with 50 mM Tris-HCl (pH 8.0), 300 mM NaCl, 1 mM DTT, and elution was performed with a buffer containing 50 mM Tris-HCl (pH 8.0), 300 mM NaCl, 1 mM DTT, 250 mM Imidazole. Furthermore, gel filtration was performed using […] equilibrated in advance with a buffer containing 50 mM Tris-HCl (pH 8.0), 150 mM NaCl, 1 mM DTT, 10% glycerol to give purified human PRS protein. The protein concentration was measured using BCA Protein Assay Kit (PIERCE) and BSA as the standard.
A test compound was dissolved in 5 μL of an assay buffer (50 mM Tris-HCl (pH 7.5), 20 mM KCl, 1 mM DTT, 0.01% Tween 20) and incubated for 60 min with 5 μL of 40 nM human PRS protein dissolved in the assay buffer containing 40 mM MgCl2. An enzyme reaction of the human PRS protein was started by adding 10 μL of a substrate solution containing 300 μM ATP, 160 μM L-Proline, 400 μM pyrophosphate, [^32P]pyrophosphate (PerkinElmer, Waltham, Mass.) prepared to 1 MBq/mL. After incubation at room temperature for 30 min, the reaction was discontinued by adding 50 μL of discontinuation/washing solution (1M HCl, 200 mM sodium pyrophosphate) to the reaction mixture. The reaction solution was transferred to a filter plate (Merck Millipore, Billerica, Mass.) previously added with 200 μL of charcoal solution (0.5% HCl solution containing 10% charcoal (w/v)). […]

As for `Cc1cc(N2CC[C@@](C#N)(C3CC3)C2=O)cc(NC(=O)Cc2ccccc2)n1` [Example 20, N-(4-((3S)-3-cyano-3-cyclopropyl-2-oxopyrrolidin-1-yl)-6-methylpyridin-2-yl)-2-phenylacetamide], in experiment [1], the inhibition at 1 µM turned out to be 63%. Besides, the inhibition at 0.3 µM in experiment [2] was determined as 94%. Consider `Cn1cc(-c2cccc(CC(=O)Nc3cc(N4CC[C@@](C#N)(C5CC5)C4=O)ccn3)c2)cn1` [Example 26, N-(4-((3S)-3-cyano-3-cyclopropyl-2-oxopyrrolidin-1-yl)pyridin-2-yl)-2-(3-(1-methyl-1H-pyrazol-4-yl)phenyl)acetamide], for which the inhibition at 1 µM in experiment [1] came to 92%. Further, the inhibition at 0.3 µM in experiment [2] came to 100%. Turning to `Cc1cc(N2CC[C@@](C#N)(C3CC3)C2=O)cc(NC(=O)Cc2cccc3ccccc23)n1` [Example 27, N-(4-((3S)-3-cyano-3-cyclopropyl-2-oxopyrrolidin-1-yl)-6-methylpyridin-2-yl)-2-(1-naphthyl)acetamide], the inhibition at 1 µM in experiment [1] was found to be 74%. The inhibition at 0.3 µM in experiment [2] worked out at 97%.

As to `N#C[C@@]1(C2CC2)CCN(c2ccnc(NC(=O)Cc3cccc(-c4ccncc4)c3)c2)C1=O` [Example 29, N-(4-((3S)-3-cyano-3-cyclopropyl-2-oxopyrrolidin-1-yl)pyridin-2-yl)-2-(3-(pyridin-4-yl)phenyl)acetamide], the inhibition at 1 µM in experiment [1] was determined as 60%. In experiment [2], the inhibition at 0.3 µM amounted to 97%. With `Cc1cc(N2CC[C@@](C#N)(C3CC3)C2=O)cc(NC(=O)Cc2cccc(-c3cnn(C)c3)c2)n1` [Example 30, N-(4-((3S)-3-cyano-3-cyclopropyl-2-oxopyrrolidin-1-yl)-6-methylpyridin-2-yl)-2-(3-(1-methyl-1H-pyrazol-4-yl)phenyl)acetamide], the inhibition at 1 µM in experiment [1] was determined as 99%. Moreover, the inhibition at 0.3 µM in experiment [2] was found to be 99%. For the molecule `Cn1cc(-c2cc(F)cc(CC(=O)Nc3cc(N4CC[C@@](C#N)(C5CC5)C4=O)ccn3)c2)cn1` [Example 35, N-(4-((3S)-3-cyano-3-cyclopropyl-2-oxopyrrolidin-1-yl)pyridin-2-yl)-2-(3-fluoro-5-(1-methyl-1H-pyrazol-4-yl)phenyl)acetamide], the inhibition at 1 µM in experiment [1] stood at 97%. For the same molecule, the inhibition at 0.3 µM in experiment [2] stood at 102%.

In the case of `CCn1cc(-c2cccc(CC(=O)Nc3cc(N4CC[C@@](C#N)(C5CC5)C4=O)ccn3)c2)cn1` [Example 37, N-(4-((3S)-3-cyano-3-cyclopropyl-2-oxopyrrolidin-1-yl)pyridin-2-yl)-2-(3-(1-ethyl-1H-pyrazol-4-yl)phenyl)acetamide], the inhibition at 1 µM in experiment [1] stood at 90%. The inhibition at 0.3 µM in experiment [2] worked out at 99%.

Consider `N#C[C@@]1(C2CC2)CCN(c2ccnc(NC(=O)Cc3cccc(-c4cnn(CC(F)F)c4)c3)c2)C1=O` [Example 38, N-(4-((3S)-3-cyano-3-cyclopropyl-2-oxopyrrolidin-1-yl)pyridin-2-yl)-2-(3-(1-(2,2-difluoroethyl)-1H-pyrazol-4-yl)phenyl)acetamide], for which the inhibition at 1 µM in experiment [1] was determined as 88%. Besides, in experiment [2], the inhibition at 0.3 µM came to 100%. On to `Cn1cc(-c2cccc(CC(=O)Nc3cc(N4CC[C@@](C#N)(C5CC5)C4=O)ccn3)c2)ccc1=O` [Example 41, N-(4-((3S)-3-cyano-3-cyclopropyl-2-oxopyrrolidin-1-yl)pyridin-2-yl)-2-(3-(1-methyl-6-oxo-1,6-dihydropyridin-3-yl)phenyl)acetamide], for which the inhibition at 1 µM in experiment [1] was 72%. Also, in experiment [2], the inhibition at 0.3 µM was determined as 101%. Turning to `N#C[C@@]1(C2CC2)CCN(c2ccnc(NC(=O)Cc3cccc(-c4cnn(C5CC5)c4)c3)c2)C1=O` [Example 42, N-(4-((3S)-3-cyano-3-cyclopropyl-2-oxopyrrolidin-1-yl)pyridin-2-yl)-2-(3-(1-cyclopropyl-1H-pyrazol-4-yl)phenyl)acetamide], the inhibition at 1 µM in experiment [1] is 84%. Also, in experiment [2], the inhibition at 0.3 µM was 100%. On to `N#C[C@@]1(C2CC2)CCN(c2cc(NC(=O)Cc3ccccc3)ncn2)C1=O` [Example 127, N-(6-((3S)-3-cyano-3-cyclopropyl-2-oxopyrrolidin-1-yl)pyrimidin-4-yl)-2-phenylacetamide], for which the inhibition at 0.3 µM in experiment [2] was 65%. Still for that read-out and setting: the value for `N#C[C@@]1(C2CC2)CCN(c2ccnc(NC(=O)Cc3cccc4ccccc34)n2)C1=O` [Example 128, N-(4-((3S)-3-cyano-3-cyclopropyl-2-oxopyrrolidin-1-yl)pyrimidin-2-yl)-2-(1-naphthyl)acetamide] was 95%; that for `N#C[C@@]1(C2CC2)CCN(c2ccnc(NC(=O)Cc3cccc(Cl)c3)n2)C1=O` [Example 129, 2-(3-chlorophenyl)-N-(4-((3S)-3-cyano-3-cyclopropyl-2-oxopyrrolidin-1-yl)pyrimidin-2-yl)acetamide] was 87%. Regarding `N#C[C@@]1(C2CC2)CCN(c2ccnc(NC(=O)Cc3ccc(Cl)s3)n2)C1=O` [Example 130, 2-(5-chloro-2-thienyl)-N-(4-((3S)-3-cyano-3-cyclopropyl-2-oxopyrrolidin-1-yl)pyrimidin-2-yl)acetamide], the inhibition at 0.3 µM in experiment [2] stood at 84%. On to `Cc1cc(N2CC[C@@](C#N)(C3CC3)C2=O)nc(NC(=O)Cc2ccccc2)n1` [Example 131, N-(4-((3S)-3-cyano-3-cyclopropyl-2-oxopyrrolidin-1-yl)-6-methylpyrimidin-2-yl)-2-phenylacetamide], for which the inhibition at 0.3 µM in experiment [2] was found to be 89%.
